Assay results as given in patent US20240270699A1, “COMPOUNDS HAVING N-ARYLPYRIMIDIN-2-AMINE DERIVATIVES AS THERAPEUTIC AGENTS” (Lomond Therapeutics, Inc., priority 2021, published 2024).

Columns and labels:
recombinant HPK1 protein = biological target: T1, recombinant HPK1 protein (Homo sapiens, UniProt Q92918); experiment: Primary assay of HPK1 enzymatic activity inhibition (ADP-Glo luminescence); type: biochemical; settings: recombinant HPK1, MBP substrate, 1 hour at room temperature
T1 construct: purchased Promega V6398
T1 sequence (Q92918 1-346 limits assumed): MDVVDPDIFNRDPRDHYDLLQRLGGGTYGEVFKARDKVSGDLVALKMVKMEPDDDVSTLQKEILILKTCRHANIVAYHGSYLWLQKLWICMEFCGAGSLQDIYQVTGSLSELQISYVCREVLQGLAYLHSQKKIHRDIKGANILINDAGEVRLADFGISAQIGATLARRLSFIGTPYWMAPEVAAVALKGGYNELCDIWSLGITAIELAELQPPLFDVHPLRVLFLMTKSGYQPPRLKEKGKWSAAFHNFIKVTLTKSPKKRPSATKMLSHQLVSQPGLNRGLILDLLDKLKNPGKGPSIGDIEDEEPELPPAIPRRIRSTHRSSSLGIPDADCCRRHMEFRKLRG

Jurkat cells = experiment: IL-2 release Jurkat assay (anti-CD3/anti-CD28 stimulation, IL-2 ELISA); type: cell-based, human; settings: activation with 400 ng/mL aCD3 + 400 ng/mL aCD28, 24 hours
[1] = Table B: Jurkat, 1.5 μM of tested compounds
[2] = Table C: Jurkat, 6 μM of tested compounds, stimulated vehicle = A
[3] = Table D: Jurkat, 6 μM of tested compounds, stimulated vehicle = B

Row | Compound | IC50 (recombinant HPK1 protein) [nM] | IL-2, pg/mL stimulated (Jurkat cells; [1]) | IL-2, pg/mL stimulated (Jurkat cells; [2]) | IL-2, pg/mL stimulated (Jurkat cells; [3])
1 | CS(=O)(=O)c1ccc(Nc2ncc(C(N)=O)c(N[C@H](CO)c3ccccc3)n2)cc1F [Compound 31, 2-{[3-fluoro-4-(methylsulfonyl)phenyl]amino}-4-{[(1S)-2-hydroxy-1-phenylethyl]amino}pyrimidine-5-carboxamide] | 50 to 200 | C (25.0 pg/mL≤IL-2<35.0 pg/mL) | – | –
2 | CNC(=O)c1cnc(Nc2ccc3c(c2)CCN(C)C3=O)nc1N[C@H](CO)c1ccccc1 [Compound 43, 4-{[(1S)-2-hydroxy-1-phenylethyl]amino}-N-methyl-2-[(2-methyl-1-oxo-1,2,3,4-tetrahydroisoquinolin-6-yl)amino]pyrimidine-5-carboxamide] | 50 to 200 | D (35.0 pg/mL≤IL-2) | – | –
3 | CCOC(=O)c1cnc(Nc2ccc3c(c2)CCNC3=O)nc1N[C@H](CO)c1ccccc1 [Compound 45, Ethyl 4-{[(1S)-2-hydroxy-1-phenylethyl]amino}-2-[(1-oxo-1,2,3,4-tetrahydroisoquinolin-6-yl)amino]pyrimidine-5-carboxylate] | < 50 | – | B (50 pg/mL≤IL-2<100 pg/mL) | –
4 | CCOC(=O)c1cnc(Nc2ccc3c(c2)CCC(=O)N3)nc1N[C@H](CO)c1ccccc1 [Compound 46, Ethyl 4-[[(1S)-2-hydroxy-1-phenyl-ethyl]amino]-2-[(2-oxo-3,4-dihydro-1H-quinolin-6-yl)amino]pyrimidine-5-carboxylate] | < 50 | – | – | D (150 pg/mL≤IL-2)
5 | CCOC(=O)c1cnc(Nc2ccc(C(=O)N(C)C)cc2)nc1N[C@H](CO)c1ccccc1 [Compound 47, Ethyl 2-[4-(dimethylcarbamoyl)anilino]-4-[[(1S)-2-hydroxy-1-phenyl-ethyl]amino]pyrimidine-5-carboxylate] | 50 to 200 | – | B (50 pg/mL≤IL-2<100 pg/mL) | –
6 | CNC(=O)c1cnc(Nc2ccc(S(C)(=O)=O)c(C)c2)nc1N[C@H](CO)c1ccccc1 [Compound 65, 4-{[(1S)-2-hydroxy-1-phenylethyl]amino}-N-methyl-2-{[3-methyl-4-(methylsulfonyl)phenyl]amino}pyrimidine-5-carboxamide] | 50 to 200 | D (35.0 pg/mL≤IL-2) | – | –
7 | CCOC(=O)c1cnc(Nc2ccc(S(C)(=O)=O)cc2)nc1N[C@H](CO)c1ccccc1 [Compound 68, Ethyl 4-{[(1S)-2-hydroxy-1-phenylethyl]amino}-2-{[4-(methylsulfonyl)-phenyl]amino}pyrimidine-5-carboxylate] | < 50 | D (35.0 pg/mL≤IL-2) | – | –
8 | CCOC(=O)c1cnc(Nc2cccc(S(C)(=O)=O)c2)nc1N[C@H](CO)c1ccccc1 [Compound 69] | 200 to 500 | – | B (50 pg/mL≤IL-2<100 pg/mL) | –
9 | CNC(=O)c1cnc(Nc2ccc(F)c(-c3ccccc3)c2)nc1N[C@H](CO)c1ccccc1 [Compound 82, 2-[(6-fluorobiphenyl-3-yl)amino]-4-{[(1S)-2-hydroxy-1-phenylethyl]amino}-N-methylpyrimidine-5-carboxamide] | 50 to 200 | C (25.0 pg/mL≤IL-2<35.0 pg/mL) | – | –
10 | CNC(=O)c1cnc(Nc2ccc(S(C)(=O)=O)c(F)c2)nc1N[C@H](CO)c1ccccc1 [Compound 105, 2-{[3-fluoro-4-(methylsulfonyl)phenyl]amino}-4-{[(1S)-2-hydroxy-1-phenylethyl]amino}-N-methylpyrimidine-5-carboxamide] | 50 to 200 | C (25.0 pg/mL≤IL-2<35.0 pg/mL) | – | –
11 | CCNC(=O)c1cnc(Nc2ccc3c(c2)CCN(C)C3=O)nc1N[C@H](CO)c1ccccc1 [Compound 119, N-ethyl-4-{[(1S)-2-hydroxy-1-phenylethyl]amino}-2-[(2-methyl-1-oxo-1,2,3,4-tetrahydroisoquinolin-6-yl)amino]pyrimidine-5-carboxamide] | < 50 | D (35.0 pg/mL≤IL-2) | – | –
12 | CCOC(=O)c1cnc(Nc2ccc3c(c2)CCN(C)C3=O)nc1N[C@H](CO)c1ccccc1 [Compound 122, Ethyl 4-{[(1S)-2-hydroxy-1-phenylethyl]amino}-2-[(2-methyl-1-oxo-1,2,3,4-tetrahydroisoquinolin-6-yl)amino]pyrimidine-5-carboxylate] | < 50 | C (25.0 pg/mL≤IL-2<35.0 pg/mL) | – | –
13 | CCOC(=O)c1cnc(Nc2ccc(C(=O)N(C)C)c(C)c2)nc1N[C@H](CO)c1ccccc1 [Compound 125, Ethyl 2-[4-(dimethylcarbamoyl)-3-methyl-anilino]-4-[[(1S)-2-hydroxy-1-phenyl-ethyl]amino]pyrimidine-5-carboxylate] | 200 to 500 | – | – | D (150 pg/mL≤IL-2)
14 | CCNC(=O)c1cnc(Nc2ccc(S(C)(=O)=O)c(C)c2)nc1N[C@H](CO)c1ccccc1 [Compound 156, N-ethyl-4-{[(1S)-2-hydroxy-1-phenylethyl]amino}-2-{[3-methyl-4-(methylsulfonyl)phenyl]amino}pyrimidine-5-carboxamide] | 50 to 200 | C (25.0 pg/mL≤IL-2<35.0 pg/mL) | – | –
15 | Cc1cc(Nc2ncc(C(=O)N(C)C)c(N[C@H](CO)c3ccccc3)n2)ccc1S(C)(=O)=O [Compound 157, 4-[[(1S)-2-hydroxy-1-phenyl-ethyl]amino]-N,N-dimethyl-2-(3-methyl-4-methylsulfonyl-anilino)pyrimidine-5-carboxamide] | 200 to 500 | – | C (100 pg/mL≤IL-2<150 pg/mL) | –
16 | CCOC(=O)c1cnc(Nc2ccc(S(C)(=O)=O)c(C)c2)nc1N[C@H](CO)c1ccccc1 [Compound 166, Ethyl 4-{[(1S)-2-hydroxy-1-phenylethyl]amino}-2-{[3-methyl-4-(methylsulfonyl)phenyl]amino}pyrimidine-5-carboxylate] | < 50 | C (25.0 pg/mL≤IL-2<35.0 pg/mL) | – | –
17 | CCOC(=O)c1cnc(Nc2ccc(S(C)(=O)=O)cc2C)nc1N[C@H](CO)c1ccccc1 [Compound 167, Ethyl 4-{[(1S)-2-hydroxy-1-phenylethyl]amino}-2-{[2-methyl-4-(methylsulfonyl)phenyl]amino}pyrimidine-5-carboxylate] | 200 to 500 | – | B (50 pg/mL≤IL-2<100 pg/mL) | –
18 | CCOC(=O)c1cnc(Nc2ccc(S(=O)(=O)CC)cc2)nc1N[C@H](CO)c1ccccc1 [Compound 168, Ethyl 2-{[4-(ethylsulfonyl)phenyl]amino}-4-{[(1S)-2-hydroxy-1-phenylethyl]amino}pyrimidine-5-carboxylate] | 50 to 200 | – | A (IL-2<50 pg/mL) | –
19 | CCNC(=O)c1cnc(Nc2ccc(F)c(-c3ccccc3)c2)nc1N[C@H](CO)c1ccccc1 [Compound 189, N-ethyl-2-[(6-fluorobiphenyl-3-yl)amino]-4-{[(1S)-2-hydroxy-1-phenylethyl]amino}pyrimidine-5-carboxamide] | 200 to 500 | C (25.0 pg/mL≤IL-2<35.0 pg/mL) | – | –
20 | CCOC(=O)c1cnc(Nc2ccc(F)c(-c3ccccc3)c2)nc1N[C@H](CO)c1ccccc1 [Compound 195, Ethyl 2-[(6-fluorobiphenyl-3-yl)amino]-4-{[(1S)-2-hydroxy-1-phenylethyl]amino}pyrimidine-5-carboxylate] | 200 to 500 | C (25.0 pg/mL≤IL-2<35.0 pg/mL) | – | –
21 | CCOC(=O)c1cnc(Nc2ccc(S(C)(=O)=O)c(F)c2)nc1N[C@H](CO)c1ccccc1 [Compound 210, Ethyl 2-{[3-fluoro-4-(methylsulfonyl)phenyl]amino}-4-{[(1S)-2-hydroxy-1-phenylethyl]amino}pyrimidine-5-carboxylate] | 200 to 500 | D (35.0 pg/mL≤IL-2) | – | –
